Results from patent US10934282B2, “Heteroaromatic modulators of the retinoid-related orphan receptor gamma” (LEO PHARMA A/S, priority 2016, dated 2021).
Structures can show the parent of a compound that is named as a salt.

What was measured:
[1] = molecular target: T1, human RORgt nuclear receptor (RORgT ligand binding domain protein) (Homo sapiens, UniProt P51449); assay: ROR-gamma binding assay (Scintillation Proximity Assay, displacement of [3H]-25-hydroxycholesterol); settings: EC50, SPA, 15 nM [3H]-25-Hydroxycholesterol, RORgT LBD 12 nM
T1 construct: purchased Proteros Biostructures GmbH
T1 sequence (P51449 with tags, fused parts or gaps): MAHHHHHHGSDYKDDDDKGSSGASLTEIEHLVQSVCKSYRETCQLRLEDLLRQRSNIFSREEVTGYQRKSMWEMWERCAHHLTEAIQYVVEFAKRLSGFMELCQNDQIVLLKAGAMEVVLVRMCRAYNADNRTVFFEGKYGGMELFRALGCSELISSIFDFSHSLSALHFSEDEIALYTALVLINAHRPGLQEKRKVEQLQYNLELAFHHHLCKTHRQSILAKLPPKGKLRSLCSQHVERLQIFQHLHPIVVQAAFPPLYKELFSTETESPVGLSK
Outline: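 SPA competition of compound against 15 nM [3H]-25-hydroxycholesterol for His/FLAG-tagged human RORγt LBD (12 nM) on His-tag PVT beads, in 50 mM HEPES pH 7.4, 150 mM NaCl, 5 mM MgCl2, 0.1% BSA, 0.5% DMSO. 30 min preincubation, then ≥4 h at room temperature in darkness; EC50 by four-parameter fit.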

[2] = test system: IL-17A in Human peripheral mononuclear cells; assay: Human PBMC IL-17A assay; format: cell-based; settings: 72 h, EC50, antiCD3/antiCD28-coated beads, 3 days, alpha-LISA
Outline: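 Cryopreserved human PBMC (130,000/well) stimulated with anti-CD3/anti-CD28-coated beads (1 cell per bead) in RPMI-1640 with 10% bovine calf serum, compounds at 0.1% DMSO, for 3 days. Supernatant IL-17A measured by AlphaLISA, viability by PrestoBlue; EC50 from 4-parameter non-linear regression.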

[3] = test system: IL-17A levels in human peripheral blood; assay: tissue or blood; format: cell-based; settings: 72 h, read-out: Human Whole blood IL-17A (nM)

For Cc1cc(CN2CCN(C(=O)OC(C)C)[C@@H](C)C2)c(C)c(Nc2nnc([C@@H](N)[C@@H](C)O)o2)c1 [Example 41, isopropyl (2S)-4-[[3-[[5-[(1S,2R)-1-amino-2-hydroxy-propyl]-1,3,4-oxadiazol-2-yl]amino]-2,5-dimethyl-phenyl]methyl]-2-methyl-piperazine-1-carboxylate], the EC50 [1] was 91.1 nM, the EC50 [2] was 215 nM and the EC50 [3] was 373 nM.
With Cc1cc(CN2CCN(C(=O)OC(C)C)[C@@H](C)C2)c(C)c(Nc2nnc(CC#N)o2)c1 [Example 42, isopropyl (2S)-4-[[3-[[5-(cyanomethyl)-1,3,4-oxadiazol-2-yl]amino]-2,5-dimethyl-phenyl]methyl]-2-methyl-piperazine-1-carboxylate] the EC50 [1] was 48 nM, the EC50 [2] was 34.2 nM and the EC50 [3] was 359 nM.
Cc1c(CN2CCN(C(=O)OC(C)C)[C@@H](C)C2)cc(C(F)F)cc1Nc1nnc([C@H](C)O)o1 [Example 43, isopropyl (2S)-4-[[5-(difluoromethyl)-3-[[5-[(1S)-1-hydroxyethyl]-1,3,4-oxadiazol-2-yl]amino]-2-methyl-phenyl]methyl]-2-methyl-piperazine-1-carboxylate] gave an EC50 [1] of 53.9 nM, an EC50 [2] of 63.5 nM and an EC50 [3] of 332 nM.
Work on Cc1c(CN2CCN(C(=O)OC(C)C)[C@@H](C)C2)cc(Cl)cc1Nc1nnc(C2CCCOC2)o1 (stereo partly drawn) [Example 44, isopropyl (2S)-4-[[5-chloro-2-methyl-3-[(5-tetrahydropyran-3-yl-1,3,4-oxadiazol-2-yl)amino]phenyl]methyl]-2-methyl-piperazine-1-carboxylate] yielded an EC50 [1] of 22.7 nM, an EC50 [2] of 26 nM and an EC50 [3] of 330 nM.
Work on Cc1c(CN2CCN(C(=O)OC(C)C)[C@@H](C)C2)cc(Cl)cc1Nc1nnc(C2(O)CC2)o1 [Example 45, isopropyl (2S)-4-[[5-chloro-3-[[5-(1-hydroxycyclopropyl)-1,3,4-oxadiazol-2-yl]amino]-2-methyl-phenyl]methyl]-2-methyl-piperazine-1-carboxylate] yielded an EC50 [1] of 42 nM, an EC50 [2] of 39.9 nM and an EC50 [3] of 330 nM.
With Cc1c(CN2CCN(C(=O)OC(C)C)[C@@H](C)C2)cc(Cl)cc1Nc1nnc(C2(CO)CC2)o1 [Example 46, isopropyl (2S)-4-[[5-chloro-3-[[5-[1-(hydroxymethyl)cyclopropyl]-1,3,4-oxadiazol-2-yl]amino]-2-methyl-phenyl]methyl]-2-methyl-piperazine-1-carboxylate] the EC50 [1] was 37.1 nM, the EC50 [2] was 103 nM and the EC50 [3] was 322 nM.
In the case of Cc1c(CN2CCN(C(=O)OC(C)C)[C@@H](C)C2)cc(Cl)cc1Nc1nnc(C(O)C(F)(F)F)o1 (stereo partly drawn) [Example 47, isopropyl (2S)-4-[[5-chloro-2-methyl-3-[[5-(2,2,2-trifluoro-1-hydroxy-ethyl)-1,3,4-oxadiazol-2-yl]amino]phenyl]methyl]-2-methyl-piperazine-1-carboxylate], the EC50 [1] is reported as 26.6 nM, the EC50 [2] is reported as 63.2 nM and the EC50 [3] is reported as 307 nM.
With Cc1c(CN2CCN(C(=O)OC(C)C)[C@@H](C)C2)cc(Cl)cc1Nc1nnc(C2CCNC2=O)o1 (stereo partly drawn) [Example 48, isopropyl (2S)-4-[[5-chloro-2-methyl-3-[[5-(2-oxopyrrolidin-3-yl)-1,3,4-oxadiazol-2-yl]amino]phenyl]methyl]-2-methyl-piperazine-1-carboxylate] the EC50 [1] was 37.2 nM, the EC50 [2] was 191 nM and the EC50 [3] was 296 nM.
For Cc1cc(CN2CCN(C(=O)OC(C)C)[C@@H](C)C2)c(C)c(Nc2nnc([C@H](C)N)o2)c1 [Example 49, isopropyl (2S)-4-[[3-[[5-[(1S)-1-aminoethyl]-1,3,4-oxadiazol-2-yl]amino]-2,5-dimethyl-phenyl]methyl]-2-methyl-piperazine-1-carboxylate], the EC50 [1] was 90.5 nM, the EC50 [2] was 218 nM and the EC50 [3] was 275 nM.
Work on Cc1c(CN2CCN(C(=O)OC(C)C)[C@@H](C)C2)cc(C(F)F)cc1Nc1nnc([C@@H](C)O)o1 [Example 50, isopropyl (2S)-4-[[5-(difluoromethyl)-3-[[5-[(1R)-1-hydroxyethyl]-1,3,4-oxadiazol-2-yl]amino]-2-methyl-phenyl]methyl]-2-methyl-piperazine-1-carboxylate] yielded an EC50 [1] of 31.6 nM, an EC50 [2] of 86.5 nM and an EC50 [3] of 272 nM.
Work on Cc1cc(CN2CCN(C(=O)OC(C)C)[C@@H](C)C2)c(C)c(Nc2nnc(C3CNC(=O)C3)o2)c1 (stereo partly drawn) [Example 51, isopropyl (2S)-4-[[2,5-dimethyl-3-[[5-(5-oxopyrrolidin-3-yl)-1,3,4-oxadiazol-2-yl]amino]phenyl]methyl]-2-methyl-piperazine-1-carboxylate] yielded an EC50 [1] of 64.4 nM, an EC50 [2] of 216 nM and an EC50 [3] of 266 nM.
Cc1cc(CN2CCN(C(=O)OC(C)C)[C@@H](C)C2)c(C)c(Nc2nnc([C@@H]3CNC(=O)O3)o2)c1 [Example 52, isopropyl (2S)-4-[[2,5-dimethyl-3-[[5-[(5S)-2-oxooxazolidin-5-yl]-1,3,4-oxadiazol-2-yl]amino]phenyl]methyl]-2-methyl-piperazine-1-carboxylate] gave an EC50 [1] of 42.1 nM, an EC50 [2] of 134 nM and an EC50 [3] of 256 nM.
Cc1c(CN2CCN(C(=O)OC(C)C)[C@@H](C)C2)cc(Cl)cc1Nc1nnc([C@@H]2CC(=O)N2)o1 [Example 53, isopropyl (2S)-4-[[5-chloro-2-methyl-3-[[5-[(2S)-4-oxoazetidin-2-yl]-1,3,4-oxadiazol-2-yl]amino]phenyl]methyl]-2-methyl-piperazine-1-carboxylate] was tested, and the EC50 [1] was 68.2 nM, the EC50 [2] was 93.9 nM and the EC50 [3] was 247 nM.
Cc1cc(CN2CCN(C(=O)OC(C)C)[C@@H](C)C2)c(C)c(Nc2nnc(-c3nonc3C)o2)c1 [Example 54, isopropyl (2S)-4-[[2,5-dimethyl-3-[[5-(4-methyl-1,2,5-oxadiazol-3-yl)-1,3,4-oxadiazol-2-yl]amino]phenyl]methyl]-2-methyl-piperazine-1-carboxylate] gave an EC50 [1] of 16.3 nM, an EC50 [2] of 28.1 nM and an EC50 [3] of 176 nM.
Cc1cc(CN2CCN(C(=O)OC(C)C)[C@@H](C)C2)c(C)c(Nc2nnc([C@@H]3COCCN3)o2)c1 [Example 55, isopropyl (2S)-4-[[2,5-dimethyl-3-[[5-[(3S)-morpholin-3-yl]-1,3,4-oxadiazol-2-yl]amino]phenyl]methyl]-2-methyl-piperazine-1-carboxylate dihydrochloride] gave an EC50 [1] of 39 nM, an EC50 [2] of 62.3 nM and an EC50 [3] of 36.8 nM.
In the case of Cc1cc(CN2CCN(C(=O)OC(C)C)[C@@H](C)C2)c(C)c(Nc2nnc([C@@H](C)O)o2)c1 [Example 56, isopropyl (2S)-4-[[3-[[5-[(1R)-1-hydroxyethyl]-1,3,4-oxadiazol-2-yl]amino]-2,5-dimethyl-phenyl]methyl]-2-methyl-piperazine-1-carboxylate], the EC50 [1] is reported as 36.5 nM, the EC50 [2] is reported as 51.9 nM and the EC50 [3] is reported as 92.2 nM.
Cc1cc(CN2CCN(C(=O)OC(C)C)[C@@H](C)C2)c(C)c(Nc2nnc(C[C@@H](O)C(F)(F)F)o2)c1 [Example 57, isopropyl (2S)-4-[[2,5-dimethyl-3-[[5-[(2R)-3,3,3-trifluoro-2-hydroxy-propyl]-1,3,4-oxadiazol-2-yl]amino]phenyl]methyl]-2-methyl-piperazine-1-carboxylate] gave an EC50 [1] of 23.8 nM, an EC50 [2] of 46.5 nM and an EC50 [3] of 96.7 nM.
In the case of Cc1cc(CN2CCN(C(=O)OC(C)C)[C@@H](C)C2)c(C)c(Nc2nnc(C3CCNC(=O)C3)o2)c1 (stereo partly drawn) [Example 58, isopropyl (2S)-4-[[2,5-dimethyl-3-[[5-(2-oxo-4-piperidyl)-1,3,4-oxadiazol-2-yl]amino]phenyl]methyl]-2-methyl-piperazine-1-carboxylate], the EC50 [1] is reported as 54.4 nM, the EC50 [2] is reported as 373 nM and the EC50 [3] is reported as 215 nM.
In the case of Cc1cc(CN2CCN(C(=O)OC(C)C)[C@@H](C)C2)c(C)c(Nc2nnc(-c3ccnn3C)o2)c1 [Example 59, isopropyl (2S)-4-[[2,5-dimethyl-3-[[5-(2-methylpyrazol-3-yl)-1,3,4-oxadiazol-2-yl]amino]phenyl]methyl]-2-methyl-piperazine-1-carboxylate], the EC50 [1] is reported as 25.7 nM, the EC50 [2] is reported as 123 nM and the EC50 [3] is reported as 211 nM.
Compound Cc1cc(CN2CCN(C(=O)OC(C)C)[C@@H](C)C2)c(C)c(Nc2nnc(C[C@H](C)O)o2)c1 [Example 60, isopropyl (2S)-4-[[3-[[5-[(2S)-2-hydroxypropyl]-1,3,4-oxadiazol-2-yl]amino]-2,5-dimethyl-phenyl]methyl]-2-methyl-piperazine-1-carboxylate] has an EC50 [1] of 38.3 nM, an EC50 [2] of 106 nM and an EC50 [3] of 195 nM.
Cc1cc(CN2CCN(C(=O)OC(C)C)[C@@H](C)C2)c(C)c(Nc2nnc(C[C@@H](C)O)o2)c1 [Example 61, isopropyl (2S)-4-[[3-[[5-[(2R)-2-hydroxypropyl]-1,3,4-oxadiazol-2-yl]amino]-2,5-dimethyl-phenyl]methyl]-2-methyl-piperazine-1-carboxylate] was tested, and the EC50 [1] was 42.3 nM, the EC50 [2] was 106 nM and the EC50 [3] was 101 nM.
